From US3994882A, “Nitrofuran derivatives, process for the preparation thereof and compositions containing same as active ingredient” (Kabushiki Kaisha Ueno Seiyaku Oyo Kenkyujo, priority 1974, dated 1976)
In brackets after ≈: the same amount, converted by molar mass.

Tests used:
[1] = test system: Bacillus Subtilis PCI219; test: Minimum growth inhibiting concentration (Table 1); format: cell-based; conditions: TSBI, pH 7.2, 37° C., 48 hours
Experimental: (§1) For information, the minimum growth inhibiting concentration is a value
(§2) concerning microorganisms cultivated in TSBI the pH of which was adjusted
(§3) to 7.2, each bacteria being incubated at 37° C. for 48 hours.

[2] = test system: Diplococcus pneumoniae DP-1; test: Minimum growth inhibiting concentration (Table 1); format: cell-based; conditions: Streptococcus pneumoniae, DP1, TSBI, pH 7.2, 37° C., 48 hours
Experimental: as §1, §2, §3

[3] = test system: Escherichia coli O-55; test: Minimum growth inhibiting concentration (Table 1); format: cell-based; conditions: O55, TSBI, pH 7.2, 37° C., 48 hours
Experimental: as §1, §2, §3

[4] = test system: Klebsiella pneumoniae ST-101; test: Minimum growth inhibiting concentration (Table 1); format: cell-based; conditions: ST101, TSBI, pH 7.2, 37° C., 48 hours
Experimental: as §1, §2, §3

[5] = test system: Proteus vulgaris HX-19; test: Minimum growth inhibiting concentration (Table 1); format: cell-based; conditions: HX19, TSBI, pH 7.2, 37° C., 48 hours
Experimental: as §1, §2, §3

[6] = test system: Pseudomonas aeruguinosa 347; test: Minimum growth inhibiting concentration (Table 1); format: cell-based; conditions: TSBI, pH 7.2, 37° C., 48 hours
Experimental: as §1, §2, §3

[7] = test system: Salmonella enteritidis 1891; test: Minimum growth inhibiting concentration (Table 1); format: cell-based; conditions: Salmonella enterica, TSBI, pH 7.2, 37° C., 48 hours
Experimental: as §1, §2, §3

[8] = test system: Salmonella pullorum chuyu 114; test: Minimum growth inhibiting concentration (Table 1); format: cell-based; conditions: Salmonella enterica, TSBI, pH 7.2, 37° C., 48 hours
Experimental: as §1, §2, §3

[9] = test system: Staphylococcus aureus 209P; test: Minimum growth inhibiting concentration (Table 1); format: cell-based; conditions: TSBI, pH 7.2, 37° C., 48 hours
Experimental: as §1, §2, §3

[10] = test system: Streptococcus hemolyticus A 089; test: Minimum growth inhibiting concentration (Table 1); format: cell-based; conditions: Streptococcus pyogenes, A089, TSBI, pH 7.2, 37° C., 48 hours
Experimental: as §1, §2, §3

[11] = test system: Salmonella typhimium K-52; test: Curative action in infected mice (Table 4); format: in vivo; conditions: K52, 168 h, mice infected abdominally, oral in 5% gum arabic, observation one week
Experimental: (§4) Next, in Table 4 are shown the curative actions (ED50 mg/Kg body wt.) and acute toxicities (LD50 mg/kg body wt.) of the typical nitrofuran derivatives of the present invention when used with infected mice.
(§5) Note.- The numerical values in the table denote the amounts per unit body
(§6) weight of the nitrofuran derivatives required for cure when the experimen
(§7) was carried out using mice of body weight of about 20 grams and injecting
(§8) thereinto abdominally the microorganism-containing solutions in amounts o
(§9) 0.2 ml (the microorganism-containing solutions used being those in the
(§10) cases of test microorganisms 1, 3 and 4 in which the microorganism cultur
(§11) liquids were diluted 10^5, 5 and 10^2 times, respectively, and in
(§12) the case of test microorganism 2 that which was concentrated 2 times),
(§13) after which the nitrofuran derivatives suspended in 5% gum arabic were
(§14) forcedly administered orally followed by observation for one week.

[12] = test system: Staphylococcus aureus 72r; test: Curative action in infected mice (Table 4); format: in vivo; conditions: 168 h, mice infected abdominally, oral in 5% gum arabic, observation one week
Experimental: as §4, §5, §6, §7, §8, §9, §10, §11, §12, §13, §14

[13] = test system: Streptococcus hemolyticus A 089; test: Curative action in infected mice (Table 4); format: in vivo; conditions: Streptococcus pyogenes, A089, 168 h, mice infected abdominally, oral in 5% gum arabic, observation one week
Experimental: as §4, §5, §6, §7, §8, §9, §10, §11, §12, §13, §14

[14] = Acute toxicity in mice (Table 4); conditions: mouse, in vivo, po
Experimental: as §4

[15] = test system: Escherichia coli K-74; test: Curative action in infected mice (Table 4); format: in vivo; conditions: K74, 168 h, mice infected abdominally, oral in 5% gum arabic, observation one week
Experimental: as §4, §5, §6, §7, §8, §9, §10, §11, §12, §13, §14

[16] = test system: infected mice; test: Curative action in infected mice; format: in vivo; conditions: oral
Experimental: as §5, §6, §7, §8, §9, §10, §11, §12, §13, §14

[17] = test system: Streptococcus hemolyticus, Staphylococcus aureus, Escherichia coli and salmonella species; conditions: cited from earlier work
[18] = in vivo; cited from earlier work
[19] = test system: microorganisms; conditions: compound (A), background; cited from earlier work

Row | Structure (SMILES) | MIC [1] [µg/mL] | MIC [2] [µg/mL] | MIC [3] [µg/mL] | MIC [4] [µg/mL] | MIC [5] [µg/mL] | MIC [6] [µg/mL] | MIC [7] [µg/mL] | MIC [8] [µg/mL] | MIC [9] [µg/mL] | MIC [10] [µg/mL] | ED50 [11] [mg/kg] | ED50 [12] [mg/kg] | ED50 [13] [mg/kg] | LD50 [14] [mg/kg] | ED50 [15] [mg/kg] | Curative effect in infected mice (in words) [16] | Antimicrobial activity in vitro (in words) [17] | Concentration inhibiting the growth ([17]; in vitro, Streptococcus hemolyticus, Staphylococcus aureus, Escherichia coli and salmonella species) | Concentration in blood [18] | In vivo antimicrobial activity [19]
1 | CC(O)CNC(=O)c1ccc(C=Cc2ccc([N+](=O)[O-])o2)cc1 (stereo not drawn) [Example 5, 3-Para[2'-(5"-nitro-2"-furyl)-vinyl]-benzoylamino-2-propanol] | < 0.19 | 0.78 (≈ 2.47 µM) | 6.25 (≈ 19.8 µM) | 3.13 (≈ 9.9 µM) | 3.13 (≈ 9.9 µM) | > 25 | 1.56 (≈ 4.93 µM) | 6.25 (≈ 19.8 µM) | 0.78 (≈ 2.47 µM) | 0.19 (≈ 0.601 µM) | 110 | 37 | 19 | 1700 |  |  |  |  |  | 
2 | NC(=O)c1ccc(C=Cc2ccc([N+](=O)[O-])o2)cc1 [Compound A, Para-[2-(5'-nitro-2'-furyl)-vinyl]-benzoylamine, reference compound] |  |  |  |  |  |  |  |  |  |  | > 400 | > 400 | > 400 | > 400 | > 400 | no curative effects were noted | extremely superior antimicrobial activity in vitro | 0.1-3 micrograms per milliliter | can scarcely be noted | not observed
3 | NC(=O)CNC(=O)c1ccc(C=Cc2ccc([N+](=O)[O-])o2)cc1 [Example 16, Para-[2-(5'-nitro-2'-furyl)-vinyl]-N-benzoylglycine amide] | < 0.19 | 0.39 (≈ 1.24 µM) | 3.13 (≈ 9.93 µM) | 3.13 (≈ 9.93 µM) | 3.13 (≈ 9.93 µM) | > 25 | 0.78 (≈ 2.47 µM) | 3.13 (≈ 9.93 µM) | 0.78 (≈ 2.47 µM) | < 0.19 | 110 | 30 | 34 | 2000 | 34 |  |  |  |  | 
4 | O=C(NCCOCCO)c1ccc(C=Cc2ccc([N+](=O)[O-])o2)cc1 [Example 11, 2-Para-[2'-(5"-nitro-2"-furyl)-vinyl]-benzoylaminoethoxy-2-ethanol] | < 0.19 | 0.78 (≈ 2.25 µM) | 6.25 (≈ 18 µM) | 3.13 (≈ 9.04 µM) | 6.25 (≈ 18 µM) | 25 (≈ 72.2 µM) | 1.56 (≈ 4.5 µM) | 6.25 (≈ 18 µM) | 1.56 (≈ 4.5 µM) | < 0.19 | 100 | 21 | 13 | 1850 | 29 |  |  |  |  | 
5 | O=C(NCCCO)c1ccc(C=Cc2ccc([N+](=O)[O-])o2)cc1 [Example 4, 3-Para-[2'-(5"-nitro-2"-furyl)-vinyl]-benzoylamino-1-propanol] | < 0.19 | 6.25 (≈ 19.8 µM) | 3.13 (≈ 9.9 µM) | 3.13 (≈ 9.9 µM) | 6.25 (≈ 19.8 µM) | > 25 | 3.13 (≈ 9.9 µM) | 6.25 (≈ 19.8 µM) | 0.78 (≈ 2.47 µM) | < 0.19 | 125 | 50 | 24 | 1900 |  |  |  |  |  | 
6 | O=C(NCCO)c1cccc(C=Cc2ccc([N+](=O)[O-])o2)c1 [Example 2, 2-Meta-[2'-(5"-nitro-2"-furyl)-vinyl]-benzoylamino-ethanol] | < 0.19 | < 0.19 | 3.13 (≈ 10.4 µM) | 1.56 (≈ 5.16 µM) | 6.25 (≈ 20.7 µM) | 25 (≈ 82.7 µM) | 0.78 (≈ 2.58 µM) | 3.13 (≈ 10.4 µM) | 0.78 (≈ 2.58 µM) | < 0.19 | 150 | 37 | 34 | 2000 | 45 |  |  |  |  | 
7 | NC(=O)C(CO)NC(=O)c1ccc(C=Cc2ccc([N+](=O)[O-])o2)cc1 (stereo not drawn) [Example 19, Para-[2-(5'-nitro-2'-furyl)-vinyl]-N-benzoylserine amide] | < 0.19 | 0.78 (≈ 2.26 µM) | 12.5 (≈ 36.2 µM) | 6.25 (≈ 18.1 µM) | 6.25 (≈ 18.1 µM) | 25 (≈ 72.4 µM) | 1.56 (≈ 4.52 µM) | 6.25 (≈ 18.1 µM) | 1.56 (≈ 4.52 µM) | < 0.19 |  | 65 | 46 | > 2000 |  |  |  |  |  | 
